Assay results published in US11214803B2, “Modulators of YAP1 expression” (Ionis Pharmaceuticals, Inc., priority 2019, dated 2022).
Strand notation (5' to 3'): a small letter for the sugar, then the base; units joined by * are phosphorothioate-linked, units joined directly phosphodiester-linked; [ ] holds rarer units or linkages, { } end groups; capitals alone tell only the bases. k = constrained ethyl (cEt); [5mC] = 5-methylcytosine; d = 2'-deoxy (DNA)

Assays:
[1] = Cynomolgus monkey tolerability, body and organ weight measurements (Example 34); format: in vivo; details: cynomolgus monkeys, 35 mg/kg subcutaneously, loading doses days 1, 3, 5, 7, then once per week
Method: Cynomolgus monkeys were treated with Ionis modified oligonucleotides selected from studies described in the Examples above. Modified oligonucleotide tolerability was evaluated.
During the study period, the monkeys were observed twice daily for signs of illness or distress. Any animal experiencing more than momentary or slight pain or distress due to the treatment, injury or illness was treated by the veterinary staff with approved analgesics or agents to relieve the pain after consultation with the Study Director. Any animal in poor health or in a possible moribund condition was identified for further monitoring and possible euthanasia. Scheduled euthanasia of the animals was conducted on day 86 approximately 48 hours after the last dose by exsanguination while under deep anesthesia. The protocols described in the Example were approved by the Institutional Animal Care and Use Committee (IACUC).
To evaluate the effect of Ionis oligonucleotides on the overall health of the animals, body and organ weights were measured. Terminal body weight was measured prior to necropsy.

[2] = Cynomolgus monkey tolerability, pro-inflammatory proteins analysis, Complement C3 and CRP (Example 34); format: in vivo; details: cynomolgus monkeys, 35 mg/kg subcutaneously, day 42 pre-dose and 24 hours post-dose
Method: To evaluate any inflammatory effect of Ionis oligonucleotides in cynomolgus monkeys, blood samples were taken for analysis. The monkeys were fasted overnight prior to blood collection. On day 42 (pre-dose and 24 hours post-dose), approximately 0.8 mL of blood was collected from each animal and put into tubes without anticoagulant for serum separation. […] Complement C3 were measured using a Toshiba 120 FR NEO chemistry analyzer (Toshiba Co., Japan). […] Another marker of inflammation, C-Reactive Protein (CRP) was tested together with the clinical chemistry parameters tested for liver function above.

[3] = Cynomolgus monkey tolerability, hematology (Example 34); format: in vivo, cynomolgus monkeys; details: cynomolgus monkeys, 35 mg/kg subcutaneously, blood samples day 44
Method: To evaluate any effect of Ionis oligonucleotides in cynomolgus monkeys on hematologic parameters, blood samples of approximately 0.5 mL of blood was collected from each of the available study animals on day 44. The samples were collected in tubes containing K2-EDTA. Samples were analyzed for red blood cell (RBC) count, Hemoglobin (HGB), Hematocrit (HCT), Mean corpuscular volume (MCV), mean corpuscular hemoglobin (MCH), mean corpuscular hemoglobin concentration (MCHC), RBC Distribution Width (RCDW), reticulocyte count (Retic), platelet count (PLT), mean platelet volume (MPV), white blood cells (WBC) count, individual white blood cell counts, such as that of monocytes (MON), neutrophils (NEU), lymphocytes (LYM), eosinophils (EOS), basophils (BAS), and large unstained cells (LUC) using an ADVIA2120i hematology analyzer (Siemens, USA).

[4] = Cynomolgus monkey tolerability, coagulation (Example 34); format: in vivo; details: cynomolgus monkeys, 35 mg/kg subcutaneously, blood samples day 44
Method: To evaluate effect of Ionis modified oligonucleotides on coagulation in cynomolgus monkeys, blood samples of approximately 0.9 mL were collected from each of the available study animals on day 44. The samples were collected in tubes containing 3.2% sodium citrate. Coagulation parameters tested include Activated partial thromboplastin time (APTT), prothrombin time (PT) and Figrinogen (FIB).

SNU449 xenograft tumor = test: Tumor volume in SNU449 xenograft tumor model, alone and in combination with sorafenib (second Example 30); format: in vivo, human; details: SNU449 xenograft in mice
Method: Modified oligonucleotides described in the studies above were tested in a hepatocellular carcinoma SNU449 xenograft tumor model. […] A control oligonucleotide 792169, described herein above, was also tested.
Five million SNU449 cells in 30% matrigel were implanted subcutaneously into the fatpads of female NOD.Cg-Prkdcscid II2rgtmlWjl/SzJ mice (from Jackson Laboratory) at 4-6 weeks of age. 43 days post implantation (when tumors had reached approximately 100 mm^3 in size), groups of eight mice each were administered with 50 mg/kg modified oligonucleotide daily for 10 days (loading dose), following which they were administered with 50 mg/kg modified oligonucleotide four times a week for one week, following which they were dosed with 50 mg/kg modified oligonucleotide thrice weekly until the end of the study. […] Animals were sacrificed, and tumors were collected on day 119 post implantation.
Tumor volumes were also measured at the indicated days in the table below.

ERK1/2 = test: Measurement of ERK activation (pERK/ERK) in SNU449 xenograft model with sorafenib (second Example 30); format: in vivo, human; details: SNU449 xenograft in mice, combination therapy compared with sorafenib treatment alone
Method: Five million SNU449 cells in 30% matrigel were implanted subcutaneously into the fatpads of female NOD.Cg-Prkdcscid II2rgtmlWjl/SzJ mice (from Jackson Laboratory) at 4-6 weeks of age. 43 days post implantation (when tumors had reached approximately 100 mm^3 in size), groups of eight mice each were administered with 50 mg/kg modified oligonucleotide daily for 10 days (loading dose), following which they were administered with 50 mg/kg modified oligonucleotide four times a week for one week, following which they were dosed with 50 mg/kg modified oligonucleotide thrice weekly until the end of the study.
Protein analysis was carried out using standard procedures. […] ERK protein levels were compared to internal control GAPDH. […] The secondary antibody used was donkey anti-rabbit NA934, GE Healthcare. pERK/ERK levels were calculated relative to PBS control to determine % activation of ERK1/2.

[5] = Cynomolgus monkey tolerability, urine analysis (Example 34); details: cynomolgus monkeys, 35 mg/kg subcutaneously, day 44
Method: Prior to the study, the monkeys were kept in quarantine during which the animals were observed daily for general health. The monkeys were 2-4 years old and weighed 2-4 kg. Eleven groups of 4 randomly assigned male cynomolgus monkeys each were injected subcutaneously with Ionis oligonucleotide or saline in a clock-wise rotation between four different sites on the back. Following loading doses on days 1, 3, 5 and 7, the monkeys were dosed once per week (on days 14, 21, 28, 35, and 42) with 35 mg/kg of Ionis oligonucleotide.
Food was removed overnight the day before fresh urine collection, but water was supplied. Fresh urine samples for urinalysis and urine chemistry were collected from all animals using a clean cage pan on wet ice (first in the morning) on day 44. Urinalysis/Urine Chemistry parameters creatinine (UCRE), microprotein (UTP), urine microalbumin (UALB), and protein/creatinine (P/C) ratio were measured using a Toshiba 120FR automated chemistry analyzer (Toshiba Co., Japan).

[6] = Cynomolgus monkey tolerability, kidney and liver function markers (Example 34); details: cynomolgus monkeys, 35 mg/kg subcutaneously, blood samples day 44
Yap1 mRNA [7] = test: Dose-dependent inhibition of human Yap1 in A-431 cells (Example 7, 10,000 cells per well, RTS36584); format: cell-based; details: free uptake; for Yap1 mRNA, % UTC: A-431 cells 10,000 cells per well, 48 hours
Outline: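 A-431 cells at 10,000 per well received modified oligonucleotides by free uptake at several doses. After about 48 hours, Yap1 mRNA was quantified with primer-probe set RTS36584, normalized to RIBOGREEN total RNA and expressed as % untreated control. IC50 came from linear regression on a log/linear plot.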

[8] = Tolerability in Balb/c mice, plasma chemistry markers (Example 13); format: in vivo; details: male Balb/c mice, 50 mg/kg s.c. twice a week for four weeks (8 treatments), day 25
Method: Balb/c mice were treated with modified oligonucleotides selected from studies described above and evaluated for changes in the levels of various plasma chemistry markers.
(§1) Groups of male Balb/c mice at 4-6 weeks of age (obtained from Taconic) were injected subcutaneously twice a week for four weeks (for a total of 8 treatments) with 50 mg/kg of modified oligonucleotides. One group of male Balb/c mice was injected with PBS. Mice were euthanized on day 25 post start of treatment (24 hours following the final administration).

[9] = Tolerability in Balb/c mice, body and organ weights (Example 13); format: in vivo; details: male Balb/c mice, 50 mg/kg s.c. twice a week for four weeks (8 treatments), end of study (day 25)
Method: as §1
Body weights of Balb/c mice were measured at the end of the study, and the average body weight for each group is presented in the table below. Modified oligonucleotides that caused any changes in organ weights outside the expected range for modified oligonucleotides were excluded from further studies.

Yap1 mRNA [10] = test: Dose-dependent inhibition of human Yap1 in A-431 cells (Example 8, 10,000 cells per well, RTS4814); format: cell-based; details: free uptake, approximately 48 hours, RTS4814; for Yap1 mRNA, % UTC: A-431 cells, 10,000 cells per well
Outline: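 A-431 cells (10,000/well) dosed with modified oligonucleotides by free uptake; Yap1 mRNA measured ~48 h later with primer-probe set RTS4814, normalized to total RNA (RIBOGREEN). Values are % of untreated control; IC50 from linear regression on log/linear plot.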

Yap1 mRNA [11] = test: Dose-dependent inhibition of human Yap1 in SNU-449 cells (Example 9, RTS36584); format: cell-based; details: free uptake; for % UTC (Yap1 mRNA): approximately 48 hours
Outline: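 SNU-449 cells (10,000/well) took up modified oligonucleotides by free uptake at a range of doses for about 48 h. Yap1 mRNA was quantified with primer-probe set RTS36584, normalised to RIBOGREEN total RNA and expressed as % untreated control; IC50 from linear regression on log/linear plot.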

[12] = Tolerability in CD-1 mice, plasma chemistry markers (Example 18); format: in vivo; details: male CD-1 mice, 50 mg/kg s.c. twice a week (total of 9 treatments), day 34
Method: CD-1 mice were treated with modified oligonucleotides selected from studies described above and evaluated for changes in the levels of various plasma chemistry markers.
(§2) Groups of four male CD-1 mice at 5-6 weeks of age (obtained from Charles River) were injected subcutaneously twice a week for four weeks (for a total of 9 treatments) with 50 mg/kg of modified oligonucleotides. One group of male CD-1 mice was injected with PBS. Mice were euthanized on day 34 post start of treatment (24 hours following the final administration).

[13] = Tolerability in CD-1 mice, body and organ weights (Example 18); format: in vivo; details: male CD-1 mice, 50 mg/kg s.c. twice a week (total of 9 treatments), end of study (day 34)
Method: as §2
Body weights of CD-1 mice were measured at the end of the study, and the average body weight for each group is presented in the table below. Modified oligonucleotides that caused any changes in organ weights outside the expected range for modified oligonucleotides were excluded from further studies.

[14] = Tolerability in Sprague-Dawley rats, plasma chemistry markers (Example 20); format: in vivo; details: male Sprague-Dawley rats, 50 mg/kg s.c. weekly for 6 weeks (7 doses), 48 hours after last dose
Method: Sprague-Dawley rats are a multipurpose model used for safety and efficacy evaluations. The rats were treated with Ionis modified oligonucleotides from the studies described in the Examples above and evaluated for changes in the levels of various plasma chemistry markers.

[15] = Tolerability in Sprague-Dawley rats, body and organ weights (Example 20); format: in vivo; details: male Sprague-Dawley rats, 50 mg/kg s.c. weekly for 6 weeks (7 doses)
Method: Terminal body weight was measured prior to necropsy. Ionis oligonucleotides that caused any changes in organ weights outside the expected range for modified oligonucleotides were excluded from further studies.

[16] = Tolerability in Sprague-Dawley rats, kidney function, urine total protein to creatinine ratio (Example 20); details: male Sprague-Dawley rats, 50 mg/kg subcutaneously weekly for 6 weeks (total 7 doses)
Method: Male Sprague-Dawley rats were maintained on a 12-hour light/dark cycle and fed ad libitum with Purina normal rat chow. Groups of 4 Sprague-Dawley rats each were weekly injected subcutaneously with 50 mg/kg of Ionis oligonucleotide for 6 weeks (total 7 doses). Forty-eight hours after the last dose, the rats were euthanized; and organs, urine and plasma were harvested for further analysis.
To evaluate the effect of Ionis oligonucleotides on kidney function, urinary levels of total protein and creatinine were measured using an automated clinical chemistry analyzer (Hitachi Olympus AU400c, Melville, N.Y.).

ION 1198440 (AAGTGTATGTCAGAAG; cEt, 2'-MOE, 5-methylcytosine, phosphorothioate modifications, further chemistry not given here)
effect on body and organ weights [1]: well tolerated | inflammation (Complement C3) [2]: did not cause any inflammation | effect on hematologic parameters [3]: well tolerated | effect on coagulation parameters [4]: well tolerated | tumor volume (SNU449 xenograft tumor; 50 mg/kg modified oligonucleotide alone): significant reduction in tumor volume | tumor volume, combination with sorafenib (SNU449 xenograft tumor; 50 mg/kg modified oligonucleotide plus 30 mg/kg sorafenib orally 7 times a week): further reduction in tumor volume | ERK1/2 activation (pERK/ERK relative to PBS control), combination with sorafenib (ERK1/2): significant decrease in ERK1/2 activation | urine chemistry markers [5]: well tolerated | effect on liver function [6]: well tolerated

958371 (antisense kA*k[5mC]*k[5mC]*dA*dA*d[5mC]*dT*dA*dT*dT*dA*d[5mC]*dT*kT*k[5mC]*kA) [compound 958371]
Yap1 mRNA, % UTC (Yap1 mRNA [7]; Table 56, 15.6 nM): 89 % UTC | Yap1 mRNA, % UTC (Yap1 mRNA [7]; Table 56, 62.5 nM): 57 % UTC | Yap1 mRNA, % UTC (Yap1 mRNA [7]; Table 56, 4000.00 nM): 11 % UTC | IC50 (Yap1 mRNA [7]; Table 56, A-431 cells 10,000 cells per well): 0.1 µM | ALT [8]: 249 U/L | AST [8]: 199 U/L | BUN [8]: 30 mg/dL | TBIL [8]: 0.24 mg/dL | Kidney weight [9]: 0.32 g | Liver weight [9]: 1.31 g | Spleen weight [9]: 0.15 g | body weight [9]: 23 g

1076481 (k[5mC]*kT*kA*dA*dG*dT*dA*dA*dG*dG*dT*dT*dT*k[5mC]*k[5mC]*k[5mC]) [compound 1076481]
Yap1 mRNA, % UTC (Yap1 mRNA [10]; 31.3 nM): 21 % UTC | Yap1 mRNA, % UTC (Yap1 mRNA [10]; 125.0 nM): 4 % UTC | Yap1 mRNA, % UTC (Yap1 mRNA [10]; 500.0 nM): 2 % UTC | Yap1 mRNA, % UTC (Yap1 mRNA [10]; 2000.00 nM): 3 % UTC | IC50 (Yap1 mRNA [10]; A-431 cells, linear regression on log/linear plot): < 0.02 µM | % UTC (Yap1 mRNA) (Yap1 mRNA [11]; 31.3 nM): 86 % UTC | % UTC (Yap1 mRNA) (Yap1 mRNA [11]; 125.0 nM): 40 % UTC | % UTC (Yap1 mRNA) (Yap1 mRNA [11]; 500.0 nM): 15 % UTC | % UTC (Yap1 mRNA) (Yap1 mRNA [11]; 2000.00 nM): 3 % UTC | IC50 (Yap1 mRNA [11]; linear regression on a log/linear plot): 0.1 µM | ALT [12]: 71 U/L | AST [12]: 121 U/L | BUN [12]: 23 mg/dL | TBIL [12]: 0.23 mg/dL | Kidney weight [13]: 0.57 g | Liver weight [13]: 2.06 g | Spleen weight [13]: 0.23 g | body weight [13]: 39 g | ALB [14]: 2.74 g/dL | ALT [14]: 50 U/L | AST [14]: 91 U/L | BUN [14]: 49 mg/dL | TBIL [14]: 0.13 mg/dL | Kidney weight ([15]; end of study): 2.6 g | Liver weight ([15]; end of study): 14 g | Spleen weight ([15]; end of study): 2.1 g | body weight ([15]; terminal, prior to necropsy): 367 g | URINE P/C ratio (total protein to creatinine ratio) [16]: 5
